Measured values as given in patent US6300344A, “Heterocyclic compounds” (Fujisawa Pharmaceutical Co., Ltd., priority 1995, dated 2001).
Where a name gives a salt, the structure may show the parent alone.

Tested on: human platelet aggregation induced by ADP
Experiment: Inhibition of human platelet aggregation induced by ADP
Assay type: cell-based
Conditions: test compound 1.0 × 10^-7 M; human platelet rich plasma; ADP 2.5 μM final; 37° C.; mean ± S.E.
Description: Inhibition of human platelet aggregation induced by ADP
The citrate blood was centrifuged at 150 ×g for 10 minutes and the platelet rich plasma (PRP) was removed. The remaining blood was centrifuged for a further 10 minutes at 1500 ×g to prepare the platelet poor plasma (PPP), which was used as a reference for platelet aggregation. […] 25 μl of sample solution and 225 μl of PRP were mixed and stirred at 1000 rpm for 2 minutes at 37° C. Aggregation was induced by ADP solution at the final concentration of 2.5 μM.

| Structure (SMILES) | inhibition at 0.1 µM [%] |
| --- | --- |
| O=C(O)COc1cccc(CC2CCCCC=C2c2nc(-c3ccccc3)c(-c3ccccc3)o2)c1 (centres unmarked) [Test Compound (1), Sodium [3-[[2-(4,5-diphenyloxazol-2-yl)-2-cyclohepten-1-yl]methyl]phenoxy]acetate] | 88 ± 0.5 |
| O=C(O)COc1cccc2c1CCC[C@H]2N1CCC[C@@H]1c1nc(-c2ccccc2)c(-c2ccccc2)o1 [Test Compound (2), Sodium salt of (1R)-1-((2R)-2-(4,5-diphenyloxazol-2-yl)pyrrolidin-1-yl]-5-carboxymethoxy-1,2,3,4-tetrahydronaphthalene] | 85 ± 7.6 |
